Measurements reported in publication PMC8617681 (Pharmaceuticals, 2021).
“Also recorded” adds a separate entry of the source.

Experiments:
human OATP1A2 = target: T1, human OATP1A2 (Homo sapiens, UniProt P46721); test: Cellular uptake in OATP1A2-overexpressing HEK293 cells; type: in vitro ADME; conditions: 0.2 µM, 2.5 min incubation, HEK293 OATP1A2, positive control
T1 construct: Werner Siegmund and Dr. Markus Keiser (University of Greifswald); host or cells: HEK293
T1 sequence (P46721 1-670): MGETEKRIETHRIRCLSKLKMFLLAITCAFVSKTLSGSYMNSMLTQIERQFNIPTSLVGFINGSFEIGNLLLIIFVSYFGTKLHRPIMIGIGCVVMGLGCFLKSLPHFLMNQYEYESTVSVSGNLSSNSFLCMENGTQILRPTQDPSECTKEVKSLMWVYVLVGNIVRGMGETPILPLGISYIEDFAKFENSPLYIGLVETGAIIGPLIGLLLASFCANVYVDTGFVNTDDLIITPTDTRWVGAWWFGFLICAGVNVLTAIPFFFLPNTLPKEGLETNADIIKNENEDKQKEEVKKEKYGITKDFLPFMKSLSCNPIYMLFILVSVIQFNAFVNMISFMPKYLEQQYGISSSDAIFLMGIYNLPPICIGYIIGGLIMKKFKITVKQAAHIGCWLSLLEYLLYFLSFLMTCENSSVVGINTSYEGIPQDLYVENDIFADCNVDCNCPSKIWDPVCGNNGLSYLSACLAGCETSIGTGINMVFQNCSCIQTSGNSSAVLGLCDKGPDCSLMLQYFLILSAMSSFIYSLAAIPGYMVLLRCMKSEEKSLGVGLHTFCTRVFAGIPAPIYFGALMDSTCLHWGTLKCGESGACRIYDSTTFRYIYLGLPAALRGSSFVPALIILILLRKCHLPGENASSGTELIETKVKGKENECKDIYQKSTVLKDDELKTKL
Description: (§1) HEK293 cells, vector-transfected or human (h)SLCO1A2, hSLCO1B1 or hSLCO1B3 cDNA-transfected were kind gifts from Prof. Werner Siegmund and Dr. Markus Keiser (University of Greifswald, Greifswald, Germany). All the HEK293 cell lines were maintained in DMEM supplemented with 10% (v/v) FBS, 1% penicillin–streptomycin mix at 37 °C in 5% (v/v) CO2 and 500 μg/mL G418. Cells were first seeded in 12-well plates [coated with 50 mg/L poly (l-lysine) and 50 mg/L poly (l-ornithine)] at a density of 1.0 × 10^5 cells/well. For the uptake study, in order to induce the expression of OATP transporters, the cell culture medium was replaced with culture medium supplemented with 5 mM sodium butyrate 24 h before performing the uptake assay.
(§2) The uptake transport study was performed as described previously. […] The Krebs–Henseleit solution was prepared from Krebs–Henseleit-buffer modified powder and supplemented with 25 mM NaHCO3 and 2.5 mM CaCl2 adjusted to pH 6.4 with 1 M HCL. At 2.5 min, the incubation buffer was removed, and uptake was terminated by adding 1 mL of ice-cold Krebs–Henseleit buffer, followed by two times washing with 1 mL of ice-cold Krebs–Henseleit buffer. […] The cellular protein amount was determined by the Bradford method using 10 μL of the cell lysates with bovine serum albumin as a standard.

human OATP1B1 = target: T2, human OATP1B1 (Homo sapiens, UniProt Q9Y6L6); test: Cellular uptake in OATP1B1-overexpressing HEK293 cells; type: in vitro ADME; conditions: 0.2 µM, 2.5 min incubation, HEK293 OATP1B1, positive control
T2 construct: Werner Siegmund and Dr. Markus Keiser (University of Greifswald); host or cells: HEK293
T2 sequence (Q9Y6L6 1-691): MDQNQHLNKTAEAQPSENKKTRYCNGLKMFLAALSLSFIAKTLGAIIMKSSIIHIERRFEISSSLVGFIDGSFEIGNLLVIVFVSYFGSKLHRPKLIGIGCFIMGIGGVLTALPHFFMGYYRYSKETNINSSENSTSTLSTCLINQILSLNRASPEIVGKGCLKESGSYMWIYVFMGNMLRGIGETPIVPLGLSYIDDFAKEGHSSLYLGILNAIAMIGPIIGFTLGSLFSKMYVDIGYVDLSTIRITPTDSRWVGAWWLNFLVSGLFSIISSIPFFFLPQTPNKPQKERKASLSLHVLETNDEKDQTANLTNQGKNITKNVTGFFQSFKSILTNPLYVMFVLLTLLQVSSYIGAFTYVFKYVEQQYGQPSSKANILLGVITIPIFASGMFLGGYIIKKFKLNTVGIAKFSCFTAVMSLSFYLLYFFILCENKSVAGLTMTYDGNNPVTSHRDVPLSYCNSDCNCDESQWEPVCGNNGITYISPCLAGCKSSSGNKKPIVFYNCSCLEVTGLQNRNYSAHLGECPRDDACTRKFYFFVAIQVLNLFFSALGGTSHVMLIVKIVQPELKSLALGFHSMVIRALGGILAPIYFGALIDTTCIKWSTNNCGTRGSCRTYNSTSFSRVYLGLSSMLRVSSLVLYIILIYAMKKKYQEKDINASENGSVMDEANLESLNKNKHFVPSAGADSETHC
Description: as §1, §2

human OATP1B3 = target: T3, human OATP1B3 (Homo sapiens, UniProt Q9NPD5); test: Cellular uptake in OATP1B3-overexpressing HEK293 cells; type: in vitro ADME; conditions: 0.2 µM, 2.5 min incubation, HEK293 OATP1B3, positive control
T3 construct: Werner Siegmund and Dr. Markus Keiser (University of Greifswald); host or cells: HEK293
T3 sequence (Q9NPD5 1-702): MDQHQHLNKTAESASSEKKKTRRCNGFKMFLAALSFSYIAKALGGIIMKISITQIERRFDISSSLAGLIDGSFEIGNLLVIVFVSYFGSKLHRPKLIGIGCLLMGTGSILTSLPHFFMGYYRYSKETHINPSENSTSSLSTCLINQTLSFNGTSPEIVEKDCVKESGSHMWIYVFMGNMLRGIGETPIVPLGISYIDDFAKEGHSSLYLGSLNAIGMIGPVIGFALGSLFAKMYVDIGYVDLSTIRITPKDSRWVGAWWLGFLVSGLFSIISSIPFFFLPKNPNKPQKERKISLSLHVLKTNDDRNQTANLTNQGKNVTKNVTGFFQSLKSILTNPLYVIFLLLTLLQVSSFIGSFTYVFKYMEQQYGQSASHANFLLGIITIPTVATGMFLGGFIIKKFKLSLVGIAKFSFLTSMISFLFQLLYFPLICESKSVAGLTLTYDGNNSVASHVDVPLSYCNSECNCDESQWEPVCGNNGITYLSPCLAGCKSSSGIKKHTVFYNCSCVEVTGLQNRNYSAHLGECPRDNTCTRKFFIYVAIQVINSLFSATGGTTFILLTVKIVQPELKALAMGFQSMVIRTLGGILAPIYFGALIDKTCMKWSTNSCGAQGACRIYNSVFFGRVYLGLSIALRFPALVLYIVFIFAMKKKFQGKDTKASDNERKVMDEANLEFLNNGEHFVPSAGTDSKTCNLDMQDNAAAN
Description: as §1, §2

[1] = oral, mice; cited from earlier work
[2] = parameters: method as in PMID 30253203; conditions: oral brigatinib, Abcb1a/1b;Abcg2-/- mice; cited from earlier work

With `CC(C)c1nc(N(C)S(C)(=O)=O)nc(-c2ccc(F)cc2)c1/C=C/[C@@H](O)C[C@@H](O)CC(=O)O` [Rosuvastatin] the “uptake compared to vector control cells” value (human OATP1A2) was “efficiently taken up”, the “uptake compared to vector control cells” value (human OATP1B1) was “efficiently taken up” and the “uptake compared to vector control cells” value (human OATP1B3) was “efficiently taken up”.
In the case of `COc1cc2c(cc1OC)CN(CCc1ccc(NC(=O)c3cccc4c(=O)c5cccc(OC)c5[nH]c34)cc1)CC2` [elacridar], the Tmax [1] is given as “about 4 h”.
In the case of `COc1cc(N2CCC(N3CCN(C)CC3)CC2)ccc1Nc1ncc(Cl)c(Nc2ccccc2P(C)(C)=O)n1` [brigatinib], the acute toxicity [2] is listed as “severe and even lethal acute toxicity; also recorded: sometimes severe and lethal toxicity”.
